Holding throughout (assay): HDAC isoform inhibition, microfluidic lab-on-a-chip (Caliper) assay
The target of one experiment is T1, HDAC1 (Homo sapiens, UniProt Q13547).
T1 construct: purchased BPS Bioscience
The class given is biochemical. Conditions: HDAC isoform 1; 2 μM FAM-labeled acetylated peptide substrate, 60 min, room temperature.

The target of a further experiment is T2, HDAC2 (Homo sapiens, UniProt Q92769).
T2 construct: purchased BPS Bioscience
The class given is biochemical. Conditions: HDAC isoform 2; 2 μM FAM-labeled acetylated peptide substrate, 60 min, room temperature.

The next experiment has as its target T3, HDAC3 (Homo sapiens, UniProt O15379).
T3 construct: purchased BPS Bioscience
It counts as biochemical. Conditions: HDAC isoform 3; 2 μM FAM-labeled acetylated peptide substrate, 60 min, room temperature.

For a further experiment, the target named is T4, HDAC5 (Homo sapiens, UniProt Q9UQL6).
T4 construct: purchased BPS Bioscience
T4 sequence (Q9UQL6 whole entry): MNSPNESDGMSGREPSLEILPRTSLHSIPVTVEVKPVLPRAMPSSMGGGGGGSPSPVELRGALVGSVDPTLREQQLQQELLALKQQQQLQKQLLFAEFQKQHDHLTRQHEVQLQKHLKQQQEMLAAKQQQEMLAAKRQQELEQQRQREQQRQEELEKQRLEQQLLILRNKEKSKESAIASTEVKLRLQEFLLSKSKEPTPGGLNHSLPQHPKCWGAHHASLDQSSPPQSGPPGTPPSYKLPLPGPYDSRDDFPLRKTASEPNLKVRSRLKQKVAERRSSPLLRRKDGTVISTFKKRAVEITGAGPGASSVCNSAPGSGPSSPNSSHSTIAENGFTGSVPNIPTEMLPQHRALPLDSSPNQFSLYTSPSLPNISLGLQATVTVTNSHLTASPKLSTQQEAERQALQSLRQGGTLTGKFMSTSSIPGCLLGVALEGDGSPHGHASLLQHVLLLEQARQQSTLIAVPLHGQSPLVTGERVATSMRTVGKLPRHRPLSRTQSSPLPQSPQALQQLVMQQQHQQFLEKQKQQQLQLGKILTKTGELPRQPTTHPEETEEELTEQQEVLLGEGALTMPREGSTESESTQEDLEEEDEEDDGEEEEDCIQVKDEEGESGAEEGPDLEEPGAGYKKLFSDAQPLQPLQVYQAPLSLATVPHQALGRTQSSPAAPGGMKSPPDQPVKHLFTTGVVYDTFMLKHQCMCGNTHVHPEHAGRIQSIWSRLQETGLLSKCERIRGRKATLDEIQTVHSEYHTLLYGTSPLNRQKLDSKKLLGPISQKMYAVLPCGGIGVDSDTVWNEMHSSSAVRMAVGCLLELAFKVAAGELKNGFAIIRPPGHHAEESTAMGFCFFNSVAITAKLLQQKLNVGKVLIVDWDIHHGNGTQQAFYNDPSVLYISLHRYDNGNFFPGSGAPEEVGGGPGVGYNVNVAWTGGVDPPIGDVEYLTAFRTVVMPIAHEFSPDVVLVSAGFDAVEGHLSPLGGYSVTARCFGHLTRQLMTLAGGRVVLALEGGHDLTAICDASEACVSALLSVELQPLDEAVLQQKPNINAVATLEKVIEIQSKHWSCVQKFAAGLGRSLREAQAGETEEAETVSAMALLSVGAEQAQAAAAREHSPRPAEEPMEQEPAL
It counts as biochemical. The following applies: HDAC isoform 5; 2 μM FAM-labeled acetylated peptide substrate, 60 min, room temperature.

The next experiment has as its target T5, HDAC6 (Homo sapiens, UniProt Q9UBN7).
T5 construct: purchased BPS Bioscience
T5 sequence (Q9UBN7 1-1215): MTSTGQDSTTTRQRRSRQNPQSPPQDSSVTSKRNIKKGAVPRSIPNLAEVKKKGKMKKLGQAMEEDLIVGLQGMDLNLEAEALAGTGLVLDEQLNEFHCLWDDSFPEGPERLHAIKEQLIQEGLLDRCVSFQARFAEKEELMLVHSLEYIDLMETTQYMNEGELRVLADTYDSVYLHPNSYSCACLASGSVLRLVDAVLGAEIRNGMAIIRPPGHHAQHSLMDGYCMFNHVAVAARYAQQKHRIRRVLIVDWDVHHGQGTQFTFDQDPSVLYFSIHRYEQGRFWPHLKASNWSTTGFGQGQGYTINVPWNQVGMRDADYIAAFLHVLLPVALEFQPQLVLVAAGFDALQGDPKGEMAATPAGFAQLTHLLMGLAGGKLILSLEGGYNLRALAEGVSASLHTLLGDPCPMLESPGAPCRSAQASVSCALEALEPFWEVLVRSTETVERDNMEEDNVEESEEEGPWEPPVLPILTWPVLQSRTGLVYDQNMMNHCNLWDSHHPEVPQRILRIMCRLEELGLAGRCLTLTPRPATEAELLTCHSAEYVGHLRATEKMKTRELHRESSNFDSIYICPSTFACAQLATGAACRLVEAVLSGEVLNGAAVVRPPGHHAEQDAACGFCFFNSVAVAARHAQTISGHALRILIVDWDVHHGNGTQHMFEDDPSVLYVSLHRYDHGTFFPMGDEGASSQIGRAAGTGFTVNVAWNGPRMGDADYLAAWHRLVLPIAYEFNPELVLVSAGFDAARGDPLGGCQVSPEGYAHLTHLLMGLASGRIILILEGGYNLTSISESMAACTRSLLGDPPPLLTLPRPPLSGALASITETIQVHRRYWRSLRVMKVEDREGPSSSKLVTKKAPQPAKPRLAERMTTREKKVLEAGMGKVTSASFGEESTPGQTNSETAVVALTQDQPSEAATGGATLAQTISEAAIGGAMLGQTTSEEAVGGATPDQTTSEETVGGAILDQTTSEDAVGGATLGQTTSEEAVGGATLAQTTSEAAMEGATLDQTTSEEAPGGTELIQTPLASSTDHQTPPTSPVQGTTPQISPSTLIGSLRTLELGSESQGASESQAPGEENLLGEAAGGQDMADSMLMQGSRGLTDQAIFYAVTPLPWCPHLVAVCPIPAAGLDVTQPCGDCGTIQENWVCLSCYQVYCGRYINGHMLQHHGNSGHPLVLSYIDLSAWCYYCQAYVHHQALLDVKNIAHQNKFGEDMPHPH
The class given is biochemical. Conditions: HDAC isoform 6; 2 μM FAM-labeled acetylated peptide substrate, 60 min, room temperature.

In a further experiment the target is T6, HDAC7 (Homo sapiens, UniProt Q8WUI4).
T6 construct: purchased BPS Bioscience
T6 sequence (Q8WUI4 1-952): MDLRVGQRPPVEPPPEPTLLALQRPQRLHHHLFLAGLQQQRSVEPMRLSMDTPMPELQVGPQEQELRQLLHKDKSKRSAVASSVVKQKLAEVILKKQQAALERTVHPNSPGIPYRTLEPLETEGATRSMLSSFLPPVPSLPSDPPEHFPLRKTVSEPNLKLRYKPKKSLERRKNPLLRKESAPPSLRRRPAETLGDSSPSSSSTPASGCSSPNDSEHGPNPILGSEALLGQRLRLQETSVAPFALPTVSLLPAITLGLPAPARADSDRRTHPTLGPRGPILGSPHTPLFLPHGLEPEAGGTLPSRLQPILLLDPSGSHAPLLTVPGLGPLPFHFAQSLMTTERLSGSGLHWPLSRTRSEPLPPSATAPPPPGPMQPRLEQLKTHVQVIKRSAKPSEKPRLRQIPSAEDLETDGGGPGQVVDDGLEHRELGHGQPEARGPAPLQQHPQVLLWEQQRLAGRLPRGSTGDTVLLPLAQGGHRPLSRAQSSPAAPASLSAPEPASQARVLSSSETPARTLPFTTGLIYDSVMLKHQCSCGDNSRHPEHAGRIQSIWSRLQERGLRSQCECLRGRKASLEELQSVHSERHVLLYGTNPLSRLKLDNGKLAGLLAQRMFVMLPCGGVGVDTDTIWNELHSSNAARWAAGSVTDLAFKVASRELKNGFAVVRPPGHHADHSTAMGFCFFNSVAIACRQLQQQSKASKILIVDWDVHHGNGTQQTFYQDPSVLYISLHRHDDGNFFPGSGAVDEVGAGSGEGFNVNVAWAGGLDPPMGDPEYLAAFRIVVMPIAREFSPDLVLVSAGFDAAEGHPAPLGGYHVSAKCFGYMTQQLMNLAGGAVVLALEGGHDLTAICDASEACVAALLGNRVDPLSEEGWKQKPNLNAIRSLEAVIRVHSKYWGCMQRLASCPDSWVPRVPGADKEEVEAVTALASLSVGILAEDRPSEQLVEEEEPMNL
The class given is biochemical. Conditions: HDAC isoform 7; 2 μM FAM-labeled acetylated peptide substrate, 60 min, room temperature.

For the next experiment, the target named is T7, HDAC8 (Homo sapiens, UniProt Q9BY41).
T7 construct: purchased BPS Bioscience
T7 sequence (Q9BY41 1-377): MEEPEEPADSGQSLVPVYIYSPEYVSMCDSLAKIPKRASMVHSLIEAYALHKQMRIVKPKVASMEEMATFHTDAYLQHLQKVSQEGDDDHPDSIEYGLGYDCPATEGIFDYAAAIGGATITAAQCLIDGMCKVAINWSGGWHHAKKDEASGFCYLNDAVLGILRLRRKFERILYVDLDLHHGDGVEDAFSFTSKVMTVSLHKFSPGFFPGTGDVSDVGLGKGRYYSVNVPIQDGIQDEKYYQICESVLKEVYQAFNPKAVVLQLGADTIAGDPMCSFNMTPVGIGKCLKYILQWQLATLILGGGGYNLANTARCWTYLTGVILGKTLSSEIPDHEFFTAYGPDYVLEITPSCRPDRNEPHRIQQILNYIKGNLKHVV
It counts as biochemical. Conditions: HDAC isoform 8; 2 μM FAM-labeled acetylated peptide substrate, 60 min, room temperature.

The target of another experiment is T8, HDAC9 (Homo sapiens, UniProt Q9UKV0).
T8 construct: purchased BPS Bioscience
T8 sequence (Q9UKV0 whole entry): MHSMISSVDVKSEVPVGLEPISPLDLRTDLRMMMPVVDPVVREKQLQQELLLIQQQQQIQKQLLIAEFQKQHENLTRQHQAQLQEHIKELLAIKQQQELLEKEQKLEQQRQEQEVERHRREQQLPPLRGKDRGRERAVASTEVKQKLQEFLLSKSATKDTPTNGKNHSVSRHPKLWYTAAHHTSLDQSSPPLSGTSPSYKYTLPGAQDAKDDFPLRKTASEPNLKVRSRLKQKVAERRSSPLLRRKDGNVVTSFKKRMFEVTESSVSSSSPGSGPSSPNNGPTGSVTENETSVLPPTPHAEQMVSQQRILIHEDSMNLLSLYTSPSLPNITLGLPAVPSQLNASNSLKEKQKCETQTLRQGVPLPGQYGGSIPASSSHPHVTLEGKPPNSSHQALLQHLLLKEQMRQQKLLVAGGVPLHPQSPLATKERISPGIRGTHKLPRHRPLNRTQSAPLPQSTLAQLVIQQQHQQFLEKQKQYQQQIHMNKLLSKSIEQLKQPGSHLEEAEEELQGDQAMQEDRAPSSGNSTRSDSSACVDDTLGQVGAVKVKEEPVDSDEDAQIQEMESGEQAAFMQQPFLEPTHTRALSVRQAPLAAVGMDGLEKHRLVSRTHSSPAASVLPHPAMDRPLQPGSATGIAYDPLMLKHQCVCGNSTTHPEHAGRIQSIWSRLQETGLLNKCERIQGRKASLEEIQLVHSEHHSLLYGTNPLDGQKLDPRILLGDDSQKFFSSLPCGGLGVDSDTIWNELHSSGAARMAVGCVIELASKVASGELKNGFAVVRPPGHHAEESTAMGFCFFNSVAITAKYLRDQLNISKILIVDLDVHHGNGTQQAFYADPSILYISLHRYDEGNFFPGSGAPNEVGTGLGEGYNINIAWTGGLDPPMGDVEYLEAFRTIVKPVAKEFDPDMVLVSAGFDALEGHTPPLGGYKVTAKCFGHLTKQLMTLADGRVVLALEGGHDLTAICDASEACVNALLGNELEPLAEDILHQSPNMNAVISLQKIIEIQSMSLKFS
It counts as biochemical. The following applies: HDAC isoform 9; 2 μM FAM-labeled acetylated peptide substrate, 60 min, room temperature.

The target of the next experiment is HDAC4 (Homo sapiens, UniProt P56524).
HDAC4, sequence (P56524 whole entry): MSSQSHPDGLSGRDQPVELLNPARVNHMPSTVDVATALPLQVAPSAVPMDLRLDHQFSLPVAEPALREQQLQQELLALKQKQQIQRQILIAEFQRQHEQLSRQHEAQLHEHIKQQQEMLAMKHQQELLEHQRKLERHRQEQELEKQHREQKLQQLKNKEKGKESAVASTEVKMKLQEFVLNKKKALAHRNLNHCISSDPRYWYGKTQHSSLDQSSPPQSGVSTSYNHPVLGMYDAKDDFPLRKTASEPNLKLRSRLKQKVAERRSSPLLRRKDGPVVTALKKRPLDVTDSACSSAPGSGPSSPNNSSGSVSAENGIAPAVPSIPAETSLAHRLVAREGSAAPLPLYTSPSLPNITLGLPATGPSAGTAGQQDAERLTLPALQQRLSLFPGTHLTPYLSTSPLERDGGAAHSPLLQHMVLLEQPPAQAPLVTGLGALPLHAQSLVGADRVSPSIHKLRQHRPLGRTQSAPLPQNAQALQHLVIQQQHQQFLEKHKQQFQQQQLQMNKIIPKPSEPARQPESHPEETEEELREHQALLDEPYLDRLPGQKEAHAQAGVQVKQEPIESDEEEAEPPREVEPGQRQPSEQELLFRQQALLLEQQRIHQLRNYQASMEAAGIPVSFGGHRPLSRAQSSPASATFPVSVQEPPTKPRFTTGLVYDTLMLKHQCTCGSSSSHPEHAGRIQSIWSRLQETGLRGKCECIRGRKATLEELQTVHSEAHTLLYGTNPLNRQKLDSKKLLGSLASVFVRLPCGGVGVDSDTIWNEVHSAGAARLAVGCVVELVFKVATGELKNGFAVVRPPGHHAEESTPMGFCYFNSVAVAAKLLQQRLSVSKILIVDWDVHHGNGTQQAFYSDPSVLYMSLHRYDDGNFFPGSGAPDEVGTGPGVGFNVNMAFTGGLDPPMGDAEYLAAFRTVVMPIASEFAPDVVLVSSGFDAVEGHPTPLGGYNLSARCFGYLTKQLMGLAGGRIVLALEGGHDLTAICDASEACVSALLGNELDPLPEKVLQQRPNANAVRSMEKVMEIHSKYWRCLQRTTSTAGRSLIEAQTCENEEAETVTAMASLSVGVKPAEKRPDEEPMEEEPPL

A value given as a limit tells only on which side of the number the result lay.

T2 sequence (Q92769 whole entry): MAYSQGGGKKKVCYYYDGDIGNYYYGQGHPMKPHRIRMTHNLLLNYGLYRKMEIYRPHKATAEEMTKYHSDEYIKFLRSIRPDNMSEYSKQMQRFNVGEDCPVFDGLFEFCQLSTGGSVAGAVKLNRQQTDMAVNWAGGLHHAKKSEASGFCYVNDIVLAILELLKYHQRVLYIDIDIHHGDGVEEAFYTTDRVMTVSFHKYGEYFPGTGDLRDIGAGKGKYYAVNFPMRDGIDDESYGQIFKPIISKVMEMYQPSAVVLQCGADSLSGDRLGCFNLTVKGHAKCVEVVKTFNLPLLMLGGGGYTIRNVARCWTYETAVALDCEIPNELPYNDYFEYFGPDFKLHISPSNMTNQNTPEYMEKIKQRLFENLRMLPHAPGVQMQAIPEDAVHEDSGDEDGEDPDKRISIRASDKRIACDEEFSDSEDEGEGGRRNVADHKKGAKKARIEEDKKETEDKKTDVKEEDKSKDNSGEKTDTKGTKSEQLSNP
T1 sequence (Q13547 whole entry): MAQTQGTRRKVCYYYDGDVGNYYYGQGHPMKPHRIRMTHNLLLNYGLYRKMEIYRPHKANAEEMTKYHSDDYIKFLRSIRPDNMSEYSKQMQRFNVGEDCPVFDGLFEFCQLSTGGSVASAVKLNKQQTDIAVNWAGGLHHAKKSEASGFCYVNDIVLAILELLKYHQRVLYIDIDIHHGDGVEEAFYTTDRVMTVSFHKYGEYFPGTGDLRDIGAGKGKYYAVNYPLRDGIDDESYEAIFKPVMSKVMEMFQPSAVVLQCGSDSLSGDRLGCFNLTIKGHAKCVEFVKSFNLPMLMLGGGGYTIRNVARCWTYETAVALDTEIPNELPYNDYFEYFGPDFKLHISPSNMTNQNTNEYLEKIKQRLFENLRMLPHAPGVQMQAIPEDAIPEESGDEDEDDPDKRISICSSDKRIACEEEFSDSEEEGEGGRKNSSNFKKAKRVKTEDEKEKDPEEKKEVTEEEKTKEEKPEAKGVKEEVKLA
T3 sequence (O15379 whole entry): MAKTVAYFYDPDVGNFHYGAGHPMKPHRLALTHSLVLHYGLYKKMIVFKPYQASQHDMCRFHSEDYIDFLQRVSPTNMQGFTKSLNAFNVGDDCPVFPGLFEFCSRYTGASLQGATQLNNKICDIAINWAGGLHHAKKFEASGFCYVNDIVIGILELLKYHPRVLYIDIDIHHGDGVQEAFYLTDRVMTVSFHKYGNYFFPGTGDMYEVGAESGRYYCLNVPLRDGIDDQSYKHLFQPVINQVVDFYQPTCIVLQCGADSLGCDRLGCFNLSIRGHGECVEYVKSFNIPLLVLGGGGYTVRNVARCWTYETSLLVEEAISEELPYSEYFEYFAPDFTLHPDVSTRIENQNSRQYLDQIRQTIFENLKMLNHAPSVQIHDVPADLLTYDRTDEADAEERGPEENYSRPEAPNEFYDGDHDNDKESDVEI
T3 sequence (Q9Y618 395-489 partner limits assumed): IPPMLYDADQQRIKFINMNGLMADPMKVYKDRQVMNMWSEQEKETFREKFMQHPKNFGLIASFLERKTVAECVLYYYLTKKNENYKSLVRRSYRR
Method for HDAC4: The following microfluidic lab-on-a-chip assay as described herein was used to assay the compounds of the invention.
All HDACs were purchased from BPS Bioscience. All other reagents were purchased from Sigma. Caliper EZ reader II system was used to collect all the data.
In short, purified HDACs were incubated with 2 μM carboxyfluorescein (FAM)-labeled acetylated peptide substrate and test compound for 60 min at room temperature, in HDAC assay buffer that contained 50 mM HEPES (pH 7.4), 100 mM KCl, 0.01% BSA and 0.001% Tween-20. […] Substrate and product were separated electrophoretically and fluorescence intensity in the substrate and product peaks was determined and analyzed by Labchip EZ Reader. The reactions were performed in duplicate for each sample. IC50 values were automatically calculated by Origion8 using 4 Parameter Logistic Model. The percent inhibition was plotted against the compound concentration, and the IC50 value was determined from the logistic dose-response curve fitting by Origin 8.0 software.

As to `O=C(NO)C1=Cc2ccccc2CC1` [Compound 32A, N-Hydroxy-3,4-Dihydronaphthalene-2-Carboxamide], the IC50 is 1.86 µM at HDAC1; 2.6 µM on HDAC2; 2.32 µM against HDAC3; 14 µM against HDAC5; 0.014 µM on HDAC6; 2.46 µM on HDAC7. In addition, the IC50 amounted to 0.626 µM against HDAC8, 4.08 µM against HDAC9 and 4.65 µM against HDAC4.
For `Cc1ccc(S(=O)(=O)N2CC=C(C(=O)NO)CC2)cc1` [Compound 31A, N-Hydroxy-1-Tosyl-1,2,3,6-Tetrahydropyridine-4-Carboxamide], the IC50 on HDAC1 is 0.084 µM; on HDAC2 it was 0.375 µM; against HDAC3 it was 0.099 µM; on HDAC5, 7.41 µM; at HDAC6, 0.014 µM; against HDAC7, 11.6 µM. The half-maximal inhibitory concentration (IC50) is 0.494 µM against HDAC8, 13 µM on HDAC9 and 14.8 µM at HDAC4.
For `COc1ccc(C(=O)N2CCC=C(C(=O)NO)C2)cc1` [Compound 12A], the concentration for half-maximal inhibition (IC50) against HDAC1 was over 33 µM; against HDAC2, over 33 µM; against HDAC3, over 33 µM; against HDAC5 it was over 33 µM; at HDAC6, 6.2 µM; against HDAC7, over 33 µM. In addition, the IC50 against HDAC8 is 23.2 µM; against HDAC9, over 33 µM; on HDAC4, over 33 µM.
Regarding `O=C(NO)C1=CCCCC1` [Compound 19A, N-Hydroxycyclohex-1-Enecarboxamide], the IC50 at HDAC1 is 0.423 µM; on HDAC2 it was 1.4 µM; at HDAC3, 0.493 µM; on HDAC5, 15.2 µM; against HDAC6, 0.011 µM; on HDAC7, 2.32 µM. The half-inhibitory concentration (IC50) against HDAC8 is 0.523 µM; on HDAC9, 11.7 µM; at HDAC4, 10.1 µM.
Take `O=C(NO)C1=CCCC1` [Compound 21A, N-Hydroxycyclopent-1-Enecarboxamide]: the half-inhibitory concentration (IC50) stood at 0.727 µM at HDAC1; 3.44 µM against HDAC2; 0.734 µM at HDAC3; 21.1 µM at HDAC5; 0.024 µM against HDAC6; 1.85 µM at HDAC8. Besides, the IC50 is over 33 µM at HDAC9 and 29.7 µM against HDAC4.
With `O=C(NO)C1=CCOCC1` [Compound 20A, N-Hydroxy-3,6-Dihydro-2H-Pyran-4-Carboxamide], the half-inhibitory concentration (IC50) was 1.08 µM on HDAC1; 1.9 µM on HDAC2; 1.4 µM against HDAC3; 0.016 µM at HDAC6; 26.8 µM against HDAC7; 1.38 µM on HDAC8. Also, the IC50 at HDAC9 and on HDAC4 was over 33 µM in each case.
Consider `COc1ccc(CNC2C=C(C(=O)NO)CCC2)cc1` (stereo not shown) [Compound 7A, N-Hydroxy-3-((4-Methoxybenzyl)Amino)Cyclohex-1-Enecarboxamide], for which the concentration for half-maximal inhibition (IC50) on HDAC1 is over 33 µM; on HDAC2, over 33 µM; against HDAC3 it was over 33 µM; against HDAC5, over 33 µM; at HDAC6 it was 2.68 µM; against HDAC7, over 33 µM. In addition, the values for the IC50 on HDAC8, at HDAC9 and against HDAC4 were 2.16 µM, over 33 µM and over 33 µM, respectively.
Regarding `CC1=C(C(=O)NO)Cc2ccccc21` [Compound 29A, N-Hydroxy-3-Methyl-1H-Indene-2-Carboxamide], the IC50 was 0.275 µM against HDAC1; 0.584 µM against HDAC2; 0.713 µM against HDAC3; 23.6 µM at HDAC5; 0.049 µM on HDAC6; 17.9 µM on HDAC7. Moreover, the half-inhibitory concentration (IC50) against HDAC8 was found to be 1.13 µM; at HDAC9 it was 11.2 µM; against HDAC4, 16 µM.
With `O=C(NO)C1=C[C@@H](O)[C@@H](O)[C@H](O)C1` [Compound 22A, (3R,4S,5R)-N,3,4,5-Tetrahydroxycyclohex-1-Enecarboxamide], the IC50 on HDAC1, against HDAC2, against HDAC3, against HDAC5, on HDAC6 and against HDAC7 was over 33 µM in each case. Besides, the IC50 on HDAC8 was 9.14 µM; on HDAC9 it was over 33 µM; at HDAC4 it was over 33 µM.
In the case of `CN1CCC=C(C(=O)NO)C1` [Compound 30A, N-Hydroxy-1-Methyl-1,2,5,6-Tetrahydropyridine-3-Carboxamide], the IC50 on HDAC1, against HDAC2, on HDAC3, against HDAC5, at HDAC6 and against HDAC7 was over 33 µM each time. For the same compound, the IC50 was 2.63 µM against HDAC8, over 33 µM against HDAC9 and over 33 µM against HDAC4.
As to `O=C(NO)C1=CC(Sc2ccccc2)CCC1` (stereo not shown) [Compound 10A, N-Hydroxy-3-(Phenylthio)Cyclohex-1-Enecarboxamide], the 50% inhibitory concentration (IC50) came to 2.1 µM against HDAC1; 1.7 µM against HDAC2; 3.22 µM at HDAC3; 10.9 µM on HDAC5; 0.106 µM at HDAC6; 6.91 µM at HDAC7. The 50% inhibitory concentration (IC50) was found to be 0.055 µM on HDAC8, 16 µM at HDAC9 and 7.93 µM on HDAC4.

Values taken from patent US10793538B2, “Cycloalkenyl hydroxamic acid derivatives and their use as histone deacetylase inhibitors” (The Broad Institute, Inc., priority 2012, dated 2020).
